Peptide text beside a SMILES is read from it.
design: AUC: unit not given beside the values
Procedure: The pH of simulated gastric fluid (SGF, 0.15 M NaCl, pH 2.5) was increased to 7.5 with […] (40 mM), and the following compounds were added to adjust the pH to 6.8 and simulate a duodenal-jejunal environment and create simulated small intestinal fluid (SIF): (i) a bile salt mixture containing equimolar quantities (0.125 M) of sodium taurocholate and glycodeoxycholic acid in NaHC03 (1 M), (ii) solutions of pancreatin from porcine pancreas (9 mg/mL) in water was prepared and added at approximately physiological ratios. The pH was adjusted to 6.8 with HCl (0.1 M). Peptides were dissolved in SIF at a final peptide concentration of 50 µM. Aliquots (1 mL) were prepared for sampling at different time points. Simulated intestinal digestion was carried out at 37°C, and aliquots (1 mL) were taken at 0, 5, 15, and 60 min after the start of the experiment. After peptide hydrolysis, digestive enzymes were inactivated at 95°C for 15 min and samples were cooled immediately on ice water and stored at -20°C until further analysis.
Quantification of dipeptides derived from digestion were performed using a liquid chromatography multiple reaction ion monitoring-mass spectrometry (LC-MRM-MS) method as described van Platerink CJ, Janssen HG, Horsten R, Haverkamp J. Quantification of ACE inhibiting peptides in human plasma using high performance liquid chromatography-mass spectrometry. J Chromatogr B Analyt Technol Biomed Life Sci 2006,830:151-157. Peptide separation was performed on an Atlantis Hilic Silica column (2.1 x 150 mm, 3 µm particle size) and a Micromass Quattro-II (Milford MA, USA) with HP1100LC system (Hewlett-Packard, USA). The gradient started at 100% 0.1 % trifluoro acetic acid in Milli-Q water and ended at 70% 0.1% trifluoro acetic acid in acetonitrile. To support the ionization, a 70/30 mixture of propionic acid and propanol-2 was added postcolumn at a flow rate of […]. All analyses were conducted on an Alliance 2795 HPLC (Waters, Milford MA, USA) combined with a Quattro Premier triple quadrupole mass spectrometer from the same supplier.
An intestinal stability data set consisting of 228 dipeptides was generated based on the results from the simulated digestion experiments. The area under the time - peptide concentration curve was calculated and used for further analysis and modelling. An ACE inhibitory dipeptide database consisting of 228 dipeptides was constructed.
For each peptide the relative stability (in % of initial dipeptide concentration) was plotted against time and the area under the curve (AUC) was calculated.

SMILES | AUC | intestinal stability (in words)
C[C@H](NC(=O)[C@@H](N)CS)C(=O)O [CA] (H-Cys-Ala-OH) | 0 | –
C[C@@H](O)[C@H](NC(=O)[C@@H](N)CC(=O)O)C(=O)O [DT] (H-Asp-Thr-OH) | – | high intestinal stability
C[C@@H](O)[C@H](NC(=O)[C@@H](N)CS)C(=O)O [CT] (H-Cys-Thr-OH) | – | high intestinal stability

Now from value to compound:

AUC | intestinal stability (in words) | SMILES
– | high intestinal stability | N[C@@H](Cc1c[nH]c2ccccc12)C(=O)N[C@@H](CC(=O)O)C(=O)O [WD] (H-Trp-Asp-OH)
– | high intestinal stability | N[C@@H](Cc1c[nH]c2ccccc12)C(=O)N[C@@H](CO)C(=O)O [WS] (H-Trp-Ser-OH)
– | high intestinal stability | C[C@@H](O)[C@H](NC(=O)[C@@H](N)Cc1c[nH]c2ccccc12)C(=O)O [WT] (H-Trp-Thr-OH)
